Regarding `COc1ccc2c(c1)c(-c1cc3c(OC)ncnc3[nH]1)cn2C` [Example 10, 4-Methoxy-6-(5-methoxy-1-methyl-1H-indol-3-yl)-7H-pyrrolo[2,3-d]pyrimidine], the melting point turned out to be 184 °C.

In turn, `COc1ccc2[nH]cc(-c3cc4c(OC)ncnc4[nH]3)c2c1` [Example 11, 4-Methoxy-6-(5-methoxy-1H-indol-3-yl)-7H-pyrrolo[2,3-d]pyrimidine] had a melting point of over 260 °C.

As usually defined, the melting point is the temperature, or range, at which the solid turns liquid.

The values above are taken from patent US7259154B2, “Pyrrolopyrimidines” (Aventis Pharmaceuticals Inc., priority 2001, dated 2007).
